Experimental data as given in patent US20120272401A1 (priority 2009, published 2012).

Experiments:
AtABCG25 protein = target: T1, AtABCG25 protein (Arabidopsis thaliana, UniProt Q84TH5, L179I); assay type: biochemical; details: for Promotion of ABA uptake by nucleotide (energy dependence): 4 mM of the indicated nucleotide; for Inhibition of ATP-dependent ABA uptake by nucleotide: 4 mM of the indicated nucleotide in addition to ATP
T1 construct: Full-length cDNA of the AtABCG25 (Atlg71960) gene was obtained from the RIKEN BioResource Center; made in house; host or cells: Sf9 insect cells (Spodoptera frugiperda), BaculoGold baculovirus system; membrane vesicles
Protocol: Such activity is measured using the vesicle transport assay method described in the Examples below. […] The candidate of ABA transporter protein is expressed in such cell membrane. The membrane comprises inside-out membrane vesicles in which the inside and the outside are inverted.
A BaculoGold™ baculovirus expression vector system (BD PharMingen) was used to prepare the recombinant baculovirus. Sf9 insect cells (Spodoptera frugiperda) were infected with the virus and cultured in SF900-SFM medium (Invitrogen) at 27° C. for 72 hours in a shaking incubator. Cells were collected by centrifugation at 1,100×g for 10 minutes and then disrupted by nitrogen cavitation in 150 mM NaCl. 3 mM CaCl2, 2 mM MgCl2, 0.1 mM EGTA, and 10 mM Tris-HCl (pH 7.4). Undisrupted cells, nuclear debris, and mitochondria were pelleted by centrifugation at 2,600×g for 10 minutes. The supernatant was centrifuged at 100,000×g for 30 minutes, and the pellet was resuspended in 70 mM KCl, 7.5 mM MgCl2, and 50 mM MOPS-Tris (pH 7.0). Membrane vesicles were stored by freezing in a deep freezer until use. Concentration of the protein was measured using the BCA protein assay kit (Pierce) with bovine serum albumin as a control. To confirm the production of the AtABCG25 proteins in the Sf9 cells by Western blot analysis, an anti-AtABCG25 antibody was obtained by immunizing a rabbit with a synthetic peptide (Operon Biotechnologies). This synthetic peptide consisted of 3 types of 12 to 14 amino acid residues from the Arabidopsis AtABCG25 protein, designed based on positions 69 to 82 ([…]), positions 132 to 143 ([…]), and positions 328 to 340 ([…]). Membrane proteins were solubilized using 4% SDS and subjected to 10% SDS-PAGE. Proteins were transferred to a polyvinylidene difluoride membrane and probed using a rabbit anti-AtABCG25 antibody and horseradish-peroxidase-conjugated donkey anti-rabbit IgG. Specific immunoreactive proteins were detected by exposure to an autoradiography film using a chemiluminescence detection system (ECL-plus, Amersham Biosciences).
An experiment of membrane transport was carried out using the rapid filtration technique (Otsuka, M. et al., 2005, Proc. Natl. Acad. Sci., U.S.A., 102: 17923-17928). […] The transport medium was passed through a 0.45-μm nitrocellulose filter (Millipore), and the filter was washed with 6 ml of ice-cooled stop buffer (70 mM KCl, 7.5 mM MgCl2, 50 mM MOPS-Tris, pH 7.0). The radioactivity retained on the filter was determined using a liquid scintillation counter (Tri-Carb2800TRs; PerkinElmer). Membrane vesicles from Sf9 cells containing only the vector were used as the controls.

[1] = test system: CC1=CC(=O)CC(C)(C)C1(O)/C=C/C(C)=C\C(=O)O; test: cells, lysate or membranes named; details: other: membrane vesicles expressing AtABCG25, ATP-dependent uptake measured for 15 seconds at indicated ABA concentrations; 27.0 °C
[2] = test system: AtABCG25 promoter (pAtABCG25::GUS reporter); test: GUS staining of pAtABCG25::GUS transgenic plants after ABA treatment; assay type: in vivo, Arabidopsis; details: 10 μM ABA
Protocol: RNA was extracted from Arabidopsis plants for RT-PCR using the RNeasy Plant Mini Kit (Qiagen). RT-PCR was carried out using AtABCG25_RT-PCR—5′ (5′-[…]-3′ (SEQ ID NO: 8)) and AtABCG25_RT-PCR—3′ (5′-[…]-3′ (SEQ ID NO: 9)) primers with the PrimeScript One Step RT-PCR kit (Takara Bio). The Actin2 transcript as a control was amplified using Actin2RT-F (5′-[…]-3′ (SEQ ID NO: 10)) and Actin2RT-R (5″-[…]-3′ (SEQ ID NO: 11)) primers. GUS staining was carried out according to the standard protocol (Sundaresan, V. et al., 1995, Genes Dev9: 1797-1810). The plants stained with GUS were observed under a SZ61 stereoscopic microscope (Olympus), and digital images were obtained using the DS-L1 CCD digital camera (Nikon). Finer images were photographed using a BX60 upright microscope (Olympus) and a VB-7010 CCD camera (Keyence). For transgenic lines to be examined for GUS expression from the AtABCG25 promoter a 2-kb AtABCG25 promoter region was prepared by amplifying the region using AtABCG25pro_Forward (5′-[…]-3′ (SEQ ID NO: 12)) and AtABCG25pro_Reverse (5′-[…]-3′ (SEQ ID NO: 13)) primers with KOD-plus polymerase (Toyobo), cloning the amplified product into the pENTR/D/TOPO vector (Invitrogen), and integrating the resultant into the GUS-fusion vector pBGGUS (Kubo, M. et al., 2005, Genes Dev 19: 1855-1860).

T1 sequence (Q84TH5 whole entry L179I): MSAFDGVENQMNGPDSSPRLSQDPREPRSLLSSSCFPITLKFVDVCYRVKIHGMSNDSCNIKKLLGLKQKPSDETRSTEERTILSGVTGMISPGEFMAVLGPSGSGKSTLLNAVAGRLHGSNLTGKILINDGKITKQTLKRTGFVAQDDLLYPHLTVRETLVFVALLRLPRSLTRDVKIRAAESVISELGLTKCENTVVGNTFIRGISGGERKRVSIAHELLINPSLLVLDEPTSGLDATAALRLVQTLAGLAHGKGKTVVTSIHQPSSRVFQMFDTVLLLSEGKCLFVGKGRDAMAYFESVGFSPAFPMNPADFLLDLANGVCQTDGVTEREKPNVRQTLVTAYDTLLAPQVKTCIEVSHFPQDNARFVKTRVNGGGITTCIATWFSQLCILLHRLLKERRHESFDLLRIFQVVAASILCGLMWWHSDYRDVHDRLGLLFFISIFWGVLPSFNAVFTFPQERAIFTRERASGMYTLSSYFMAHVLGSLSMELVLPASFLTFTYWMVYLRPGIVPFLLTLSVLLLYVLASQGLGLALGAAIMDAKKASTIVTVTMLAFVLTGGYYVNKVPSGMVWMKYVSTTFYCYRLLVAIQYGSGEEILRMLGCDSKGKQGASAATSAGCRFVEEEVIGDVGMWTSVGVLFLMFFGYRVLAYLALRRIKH

Nc1ncnc2c1ncn2[C@@H]1O[C@H](COP(=O)(O)OP(=O)(O)O)[C@@H](O)[C@H]1O [ADP]
Promotion of ABA uptake by nucleotide (energy dependence) (AtABCG25 protein): neither ADP nor AMP promoted
Inhibition of ATP-dependent ABA uptake by nucleotide (AtABCG25 protein): inhibited

AtABCG25 protein (Arabidopsis thaliana; L179I)
Km [1]: 230 nM
Vmax [1]: 6.2 μmol/min/mg protein

CC1=CC(=O)CC(C)(C)C1(O)/C=C/C(C)=C\C(=O)O (single isomer, unassigned; (-)) [(−)ABA]
Cis-inhibition of ATP-dependent ABA uptake (substrate specificity) (AtABCG25 protein; in the presence of ATP and compound, (+)ABA at a 10-fold concentration): not influenced

Nc1ncnc2c1ncn2[C@@H]1O[C@H](COP(=O)(O)O)[C@@H](O)[C@H]1O [AMP]
Promotion of ABA uptake by nucleotide (energy dependence) (AtABCG25 protein): neither ADP nor AMP promoted
Inhibition of ATP-dependent ABA uptake by nucleotide (AtABCG25 protein): did not exhibit any inhibitory effect

Nc1ncnc2c1ncn2[C@@H]1O[C@H](COP(=O)(O)OP(=O)(O)OP(=O)(O)O)[C@@H](O)[C@H]1O [ATP, adenosine triphosphate]
Promotion of ABA uptake by nucleotide (energy dependence) (AtABCG25 protein): significantly promoted

[O]=[V]([O-])([O-])[O-] [Vanadate]
Inhibition of ATP-dependent ABA uptake by vanadate (AtABCG25 protein; 1 mM vanadate in addition to ATP): inhibited

CC1=CC(=O)CC(C)(C)C1(O)/C=C/C(C)=C\C(=O)O (racemic) [ABA, abscisic acid]
Expression level of the GUS reporter after ABA treatment [2]: increased
ABA uptake in the presence of ATP, full activity (100%) (AtABCG25 protein; at 15 seconds, in the presence of ATP, no competing compound): 8.3 μmol/mg protein
